Assay results published in article PMC6151695, “Novel Selective Estrogen Receptor Ligand Conjugates Incorporating Endoxifen-Combretastatin and Cyclofenil-Combretastatin Hybrid Scaffolds: Synthesis and Biochemical Evaluation” (Molecules : A Journal of Synthetic Chemistry and Natural …, 2017).
Marks after values point to notes of the source that are not given here.

Tests used:
[1] = system: MCF-7 human breast cancer cell line; assay: Alamar Blue assay for antiproliferative effects; format: cell-based; conditions: Homo sapiens, MCF7, 72 h, MCF-7, 72 h, Alamar Blue; read-out: IC50 (μM), antiproliferative effects
60 cancer cell lines = assay: NCI 60 cell line screen, whole panel; format: cell-based, human
CCRF-CEM = assay: NCI60 in vitro screen, Leukemia; format: cell-based, human
K-562 = assay: NCI60 in vitro screen, Leukemia; format: cell-based, human
EKVX = assay: NCI60 in vitro screen, Non-Small Cell Lung Cancer; format: cell-based, human
HOP-62 = assay: NCI60 in vitro screen, Non-Small Cell Lung Cancer; format: cell-based, human
HOP-92 = assay: NCI60 in vitro screen, Non-Small Cell Lung Cancer; format: cell-based, human
NCI-H332M = assay: NCI60 in vitro screen, Non-Small Cell Lung Cancer; format: cell-based, human
HCT-2998 = assay: NCI60 in vitro screen, Colon Cancer; format: cell-based, human
HCT-15 = assay: NCI60 in vitro screen, Colon Cancer; format: cell-based, human
HT29 = assay: NCI60 in vitro screen, Colon Cancer; format: cell-based, human
SF295 = assay: NCI60 in vitro screen, CNS Cancer; format: cell-based, human
SF539 = assay: NCI60 in vitro screen, CNS Cancer; format: cell-based, human
SNB-75 = assay: NCI60 in vitro screen, CNS Cancer; format: cell-based, human
MDA-MB-435 = assay: NCI60 in vitro screen, Melanoma; format: cell-based, human
SK-MEL-28 = assay: NCI60 in vitro screen, Melanoma; format: cell-based, human
SK-MEL-5 = assay: NCI60 in vitro screen, Melanoma; format: cell-based, human
IGROV1 = assay: NCI60 in vitro screen, Ovarian cancer; format: cell-based, human
OVCAR-3 = assay: NCI60 in vitro screen, Ovarian cancer; format: cell-based, human
NCI/ADR-RES = assay: NCI60 in vitro screen, Ovarian cancer; format: cell-based, human
SK-OV-3 = assay: NCI60 in vitro screen, Ovarian cancer; format: cell-based, human
786-0 = assay: NCI60 in vitro screen, Renal cancer; format: cell-based, human
A498 = assay: NCI60 in vitro screen, Renal cancer; format: cell-based, human
RXF 393 = assay: NCI60 in vitro screen, Renal cancer; format: cell-based, human
BT-549 = assay: NCI60 in vitro screen, Breast cancer; format: cell-based, human
T-47D = assay: NCI60 in vitro screen, Breast cancer; format: cell-based, human
MDA-MB-468 = assay: NCI60 in vitro screen, Breast cancer; format: cell-based, human
physchem = conditions: buffer
in vitro = conditions: human

CC/C(=C(\c1ccccc1)c1ccc(OCCN(C)C(=O)CCC(=O)Oc2cc(/C=C\c3cc(OC)c(OC)c(OC)c3)ccc2OC)cc1)c1ccccc1 (mixture of isomers) [Compound 16a, N-{2-[4-((Z)-1,2-Diphenylbut-1-enyl)phenoxy]ethyl}-N-methylsuccinamic acid 2-methoxy-5-[(Z)-2-(3,4,5-trimethoxyphenyl)vinyl]phenyl ester]
IC50 [1]: 0.09 µM | IC50 (60 cancer cell lines; Homo sapiens, 60 cell, read-out: GI50 (IC50) values for most of the 60 cancer cell lines): 10 to 72 nM | GI50 (60 cancer cell lines; Homo sapiens, 60 cell, NCI60 five-dose, read-out: MG-MID (μM), mean of GI50 values over all cell lines): 1.62 µM | inhibition at 10 µM (60 cancer cell lines; Homo sapiens, 60 cell, one-dose, 10 μM, read-out: growth inhibition in a further 10 cell lines): 80 to 89% | MG% (10^−5 M), Mean Growth % over all cell lines (60 cancer cell lines; NCI60 one-dose, 10 μM): 14.74% | Growth % (10^−5 M) (CCRF-CEM; 10 μM): 20.38% | GI50 (CCRF-CEM; Homo sapiens): 39.4 nM | GI50 (K-562; Homo sapiens, K562, K-562): < 10 nM | Growth % (10^−5 M) (K-562; K-562, 10 μM): 41.7% | Growth % (10^−5 M) (EKVX; 10 μM): 22.72% | GI50 (EKVX; Homo sapiens): 56.9 nM | Growth % (10^−5 M) (HOP-62; HOP-62, 10 μM): 35.29% | GI50 (HOP-62; Homo sapiens, HOP-62): 49.2 nM | Growth % (10^−5 M) (HOP-92; HOP-92, 10 μM): 58.55% | GI50 (HOP-92; Homo sapiens, HOP-92): < 10 nM | Growth % (10^−5 M) (NCI-H332M; 10 μM): 57.18% | GI50 (NCI-H332M; Homo sapiens): 67.2 nM | Growth % (10^−5 M) (HCT-2998; HCT-2998, 10 μM): 4.72% | inhibition at 10 µM (HCT-2998; Homo sapiens, HCC-2998, one-dose, 10 μM, read-out: growth inhibition): 95% | GI50 (HCT-2998; Homo sapiens, HCT-2998): 31.7 nM | Growth % (10^−5 M) (HCT-15; HCT-15, 10 μM): 0.71% | GI50 (HCT-15; Homo sapiens, HCT-15): 24.5 nM | inhibition at 10 µM (HCT-15; Homo sapiens, HCT-15, one-dose, 10 μM, read-out: growth inhibition): 99% | Growth % (10^−5 M) (HT29; HT29, 10 μM): 6.79% | GI50 (HT29; Homo sapiens, HT-29, HT29): 489 nM | inhibition at 10 µM (HT29; Homo sapiens, HT-29, HT29, one-dose, 10 μM, read-out: growth inhibition): 93% | GI50 (SF295; Homo sapiens, SF-295, SF295): 20.8 nM | inhibition at 10 µM (SF295; Homo sapiens, SF-295, one-dose, 10 μM, read-out: growth inhibition): 94% | Growth % (10^−5 M) (SF295; SF295, 10 μM): 6.21% | GI50 (SF539; Homo sapiens, SF-539, SF539): 21.3 nM | Growth % (10^−5 M) (SF539; SF539, 10 μM): −7.31 ^e % | GI50 (SNB-75; Homo sapiens, SNB-75): 16.6 nM | Growth % (10^−5 M) (SNB-75; SNB-75, 10 μM): 39.46% | GI50 (MDA-MB-435; Homo sapiens, MDA-MB-435): < 10 nM | Growth % (10^−5 M) (MDA-MB-435; MDA-MB-435, 10 μM): −16.61 ^e % | GI50 (SK-MEL-28; Homo sapiens, SK-MEL-28): < 10 nM | Growth % (10^−5 M) (SK-MEL-28; SK-MEL-28, 10 μM): 89.31% | GI50 (SK-MEL-5; Homo sapiens, SK-MEL-5): 20.1 nM | Growth % (10^−5 M) (SK-MEL-5; SK-MEL-5, 10 μM): −34.34 ^e % | GI50 (IGROV1; Homo sapiens, IGROV-1, IGROV1): 47.3 nM | Growth % (10^−5 M) (IGROV1; IGROV1, 10 μM): −26.34 ^e % | GI50 (OVCAR-3; Homo sapiens, OVCAR-3): < 10 nM | Growth % (10^−5 M) (OVCAR-3; OVCAR-3, 10 μM): −57.79 ^e % | Growth % (10^−5 M) (NCI/ADR-RES; 10 μM): −41.32 ^e % | GI50 (NCI/ADR-RES; Homo sapiens): 11.1 nM | GI50 (SK-OV-3; Homo sapiens, SK-OV-3): 36.8 nM | Growth % (10^−5 M) (SK-OV-3; SK-OV-3, 10 μM): 17.23% | Growth % (10^−5 M) (786-0; 786-0, 10 μM): 11.54% | GI50 (786-0; Homo sapiens, 786-0): 185 nM | Growth % (10^−5 M) (A498; A498, 10 μM): 29.47% | GI50 (A498; Homo sapiens, A498): 58.1 nM | GI50 (RXF 393; Homo sapiens, RXF 393): 39.8 nM | Growth % (10^−5 M) (RXF 393; RXF 393, 10 μM): 12.08% | Growth % (10^−5 M) (BT-549; BT-549, 10 μM): 7.07% | GI50 (BT-549; Homo sapiens, BT-549): 43.8 nM | inhibition at 10 µM (BT-549; Homo sapiens, BT-549, one-dose, 10 μM, read-out: growth inhibition): 94% | Growth % (10^−5 M) (T-47D; 10 μM): 59.73% | GI50 (T-47D; Homo sapiens, T47D): > 10000 nM | GI50 (MDA-MB-468; Homo sapiens, MDA-MB-468): 34.3 nM | inhibition at 10 µM (MDA-MB-468; Homo sapiens, MDA-MB-468, one-dose, 10 μM, read-out: growth inhibition): 99% | Growth % (10^−5 M) (MDA-MB-468; MDA-MB-468, 10 μM): 0.68% | half-life at 14.6 µg/mL (physchem): > 20 h | CC50 (in vitro): > 100000 nM
